Patent publication US20210332005A1, “CH-ACIDIC M[…] FOR THE PREPARATION OF AQUEOUS POLYMER DISPERSIONS” (EVONIK OPERATIONS GMBH, priority 2018, published 2021)

Assay: Solubility of the product in water (stirred with water, aqueous phase analysed by HPLC)
Type: physicochemical
Conditions: for content of the product in the aqueous phase (solubility in water): HPLC; for water-solubility, overall rating in words: summary statement
Experimental: The solubility of the product in water was determined as follows:
The product was stirred with water for three days at room temperature and the composition of the aqueous phase obtained in this way was determined using HPLC. The aqueous phase contained 6.7 wt % of the product.
A further sample of the product was stirred with water for three hours at 80° C. and cooled back to room temperature. The composition of the aqueous phase obtained in this way was subsequently determined using HPLC. The aqueous phase contained more than 10 wt % of the product.
The product was stirred with water for two days at room temperature and the composition of the aqueous phase obtained in this way was determined using HPLC. The aqueous phase contained 6.2 wt % of the product.
A further sample of the product was stirred with water for one hour at 60° C. and cooled back to room temperature. The composition of the aqueous phase obtained in this way was subsequently determined using HPLC. The aqueous phase contained 8.1 wt % of the product.
The product was stirred with water for three days at room temperature and the composition of the aqueous phase obtained in this way was determined using HPLC.
A further sample of the product was stirred with water for three hours at 80° C. and cooled to room temperature. The composition of the aqueous phase obtained in this way was subsequently determined using HPLC.

[1] = stirred with water for three days at room temperature
[2] = stirred with water for three hours at 80° C. and cooled back to room temperature

Row | SMILES | content of the product in the aqueous phase (solubility in water) [1] | content of the product in the aqueous phase (solubility in water) [2] | water-solubility, overall rating in words | content of the product in the aqueous phase (solubility in water) (stirred with water for one hour at 60° C. and cooled back to room temperature) | content of the product in the aqueous phase (solubility in water) (stirred with water for two days at room temperature)
1 | C=C(C)C(=O)NCCCCCCNC(=O)CC#N [Comparative Example 3, N-(2-cyanoethylamidohexyl)methacrylamide, reference compound] | virtually insoluble in water | virtually insoluble in water | very low water-solubility |  | 
2 | C=C(C)C(=O)NCCCCNC(=O)CC#N [Example 5, N-(2-cyanoethylamidobutyl)methacrylamide] |  |  | high water-solubility | 8.1 wt % | 6.2 wt %
3 | C=C(C)C(=O)NCCNC(=O)CC#N [Example 3, N-(2-cyanoethylamidoethyl)methacrylamide] | 6.7 wt % | more than 10 wt % | high water-solubility |  | 
